Source: patent publication US20030036564A1, “Control of lyme disease spirochete” (priority 2001, published 2003)

Test system: Borrelia burgdorferi strain B31
Experiment: Antibiotic bait diet fed no-choice for seven days to mice infected with Lyme disease spirochete; ear punch biopsy culture and dark field microscopy
Type: in vivo, laboratory mice (Swiss-Webster)
Settings: ear punch biopsy culture, dark field microscopy
Description: The diet compositions described in Examples 1-3 were fed separately on a no-choice basis to separate groups of laboratory mice (Swiss-Webster) infected with the Lyme disease spirochete Borrelia burgdorferi. […]. The mice had all been previously infected with B. burgdorferi strain B31 by subcutaneous injection followed by a minimum 21-day incubation period. To confirm that the mice were positive for the spirochete, a modified ear punch biopsy was performed (Sinsky and Piesman, 1989, J. of Clin. Micro. 27:1723-1727, CDC 1997) on each mouse and the biopsy incubated in a modified BSK-H media for 7 days and viewed under dark field microscopy. The prepared diets were fed to individually housed mice on a no-choice basis and water was offered ad libitum. Consumption was recorded each day and additional feed was added. Diet was presented to the mice for seven consecutive days. On the day following the last day feed was offered, mice were anesthetized with Halothane and ear punch biopsy was performed. The biopsies were incubated in modified BSK-H media for seven days at 34±1° C. Dark field microscopy was then performed on an American Optics 1031 microscope with an American Optics dark field 1096 condenser to determine the presence of spirochetes. Cultures were considered positive if spirochete growth occurred within five weeks of inoculation (Wilske and Preac-Mursic, Aspects of Lyme Borreliosis, Springer-Verlag, New York 1993), viewing the cultures at seven-day increments. A slide was considered negative if no spirochetes were found after searching 100 fields at 400× (Ginsberg and Ewing, J. of Med. Entomology, 26: 183-189, 1989).

[1] = Treatment level 1, chloramphenicol 500 μg/g bait
[2] = Treatment level 2, chloramphenicol 1000 μg/g bait
[3] = Treatment level 3, thiamphenicol 1000 μg/g bait

| SMILES | NUMBER OF MICE TESTING NEGATIVE FOR SPIROCHETE [1] | PERCENTAGE OF MICE TESTING NEGATIVE FOR SPIROCHETE [1] | NUMBER OF MICE TESTING NEGATIVE FOR SPIROCHETE [2] | PERCENTAGE OF MICE TESTING NEGATIVE FOR SPIROCHETE [2] | NUMBER OF MICE TESTING NEGATIVE FOR SPIROCHETE [3] | PERCENTAGE OF MICE TESTING NEGATIVE FOR SPIROCHETE [3] |
| --- | --- | --- | --- | --- | --- | --- |
| O=C(N[C@H](CO)[C@H](O)c1ccc([N+](=O)[O-])cc1)C(Cl)Cl [CHLORAMPHENICOL, chloramphenicol] | 10/10 | (100%) | 10/10 | (100%) |  |  |
| CS(=O)(=O)c1ccc([C@@H](O)[C@@H](CO)NC(=O)C(Cl)Cl)cc1 [THIAMPHENICOL, thiamphenicol] |  |  |  |  | 10/10 | (100%) |
